Several values for one entry are separate records, joined by “and”; a condition that tells them apart may be missing. Equal values may be shown once.

Test [1] deals with Pseudomonas aeruginosa (ATCC 15442). Put plainly: High resolution MBC combination test (minimum biocidal concentration), recovery in Trypticase Soy Broth plus thioglycolate.
Test [2] shares this test system. The test can be described thus: High resolution MIC combination test (minimum inhibitory concentration), 96-well microtiter plate, mineral salts medium with 2% glucose.
Description: When the sum of Qa/QA and Qb/QB is greater than one, antagonism is indicated. […] The lower the SI, the greater the synergy shown by that particular mixture. The minimum inhibitory concentration (MIC) of a microbicide is the lowest concentration tested under a specific set of conditions that prevents the growth of added microorganisms.
The tests were set up with 96-well microtiter plate using the Biomek™ 2000 Workstation employing a high resolution MIC/MBC combination test method, which provides multiple combinations of two biocides in one test plate. […] Samples (10 μl) taken from each well of the MIC plate were transferred to fresh media in the MBC plates and observed for the presence of surviving (viable) microorganisms over time. […] The synergistic ratio range of the biocide combination is a reflection of the total activity of both inhibition (MIC) and killing MBC).
Each well received 20 μl of a 24-hour pure culture suspension of Pseudomonas aeruginosa (ATCC 15442) at a final density of 106 colony forming units (CFU) per ml. Cell density was adjusted to an optical density of 0.09 at 660 nm using a spectrophotometer.
Tests were set up in duplicate with different starting concentrations of biocides to increase the number of possible combinations displaying antimicrobial activity.
All biocide results are reported on an active ingredient basis in ppm (parts per million).

On to `CC1(C)C(=O)N(Br)C(=O)N1Cl` [BCDMH, 3-Bromo-1-chloro-5,5-dimethylhydantoin], for which the A alone is on record as 6.25 ppm total oxidant in test [1] (MBC of BCDMH alone, Day 1, Expt MBC 1); 6.25 ppm total oxidant in test [1] (MBC of BCDMH alone, Day 1, Expt MBC 2); 6.25 ppm total oxidant in test [1] (MBC of BCDMH alone, Day 3, Expt MBC 2); 3.13 ppm total oxidant in test [2] (MIC of BCDMH alone, Day 1, Expt MIC 1); 3.13 ppm total oxidant in test [2] (MIC of BCDMH alone, Day 1, Expt MIC 2); 6.25 ppm total oxidant in test [2] (MIC of BCDMH alone, Day 3, Expt MIC 1). The A alone in test [2] (MIC of BCDMH alone, Day 3, Expt MIC 2) came out at 6.25 ppm total oxidant; in test [2] (MIC of BCDMH alone, Day 5, Expt MIC 1), 6.25 ppm total oxidant; in test [2] (MIC of BCDMH alone, Day 5, Expt MIC 2), 6.25 ppm total oxidant.
Regarding `O=CCCCC=O` [GLUT, Pentane-1,5-dial], the A alone in test [1] (glutaraldehyde alone, ppm active ingredient, day 1, MBC 1) is 25.00 ppm; in test [1] (glutaraldehyde alone, ppm active ingredient, day 1, MBC 2), 25.00 ppm; in test [1] (glutaraldehyde alone, ppm active ingredient, day 3, MBC 2) it was 50.00 ppm; in test [2] (glutaraldehyde alone, ppm active ingredient, day 1, MIC 1), 25.00 ppm; in test [2] (glutaraldehyde alone, ppm active ingredient, day 1, MIC 2), 25.00 ppm; in test [2] (glutaraldehyde alone, ppm active ingredient, day 3, MIC 1), 25.00 ppm. In addition, the A alone in test [2] (glutaraldehyde alone, ppm active ingredient, day 3, MIC 2) is given as 50.00 ppm; in test [2] (glutaraldehyde alone, ppm active ingredient, day 5, MIC 1), 25.00 ppm; in test [2] (glutaraldehyde alone, ppm active ingredient, day 5, MIC 2) it was 50.00 ppm. Further, the a/A was found to be 0.50 in test [1] (glutaraldehyde comb./alone, day 1, MBC 1); 0.50 in test [1] (glutaraldehyde comb./alone, day 1, MBC 2); 0.50 in test [1] (glutaraldehyde comb./alone, day 3, MBC 2); 0.50 in test [2] (glutaraldehyde comb./alone, day 1, MIC 1); 0.50 in test [2] (glutaraldehyde comb./alone, day 1, MIC 2); 0.50 in test [2] (glutaraldehyde comb./alone, day 3, MIC 1). Also, the a/A in test [2] (glutaraldehyde comb./alone, day 3, MIC 2) is 0.50; in test [2] (glutaraldehyde comb./alone, day 5, MIC 1), 0.50; in test [2] (glutaraldehyde comb./alone, day 5, MIC 2), 0.50. Moreover, the a comb. in test [1] (glutaraldehyde combined with stabilized hypochlorite and bromide, ppm active ingredient, day 1, MBC 1) came out at 12.50 ppm; in test [1] (glutaraldehyde combined with stabilized hypochlorite and bromide, ppm active ingredient, day 1, MBC 2) it was 12.50 ppm; in test [1] (glutaraldehyde combined with stabilized hypochlorite and bromide, ppm active ingredient, day 3, MBC 2) it was 25.00 ppm; in test [2] (glutaraldehyde combined with stabilized hypochlorite and bromide, ppm active ingredient, day 1, MIC 1), 12.50 ppm; in test [2] (glutaraldehyde combined with stabilized hypochlorite and bromide, ppm active ingredient, day 1, MIC 2) it was 12.50 ppm; in test [2] (glutaraldehyde combined with stabilized hypochlorite and bromide, ppm active ingredient, day 3, MIC 1), 12.50 ppm. Also, the a comb. is given as 25.00 ppm in test [2] (glutaraldehyde combined with stabilized hypochlorite and bromide, ppm active ingredient, day 3, MIC 2); 12.50 ppm in test [2] (glutaraldehyde combined with stabilized hypochlorite and bromide, ppm active ingredient, day 5, MIC 1); 25.00 ppm in test [2] (glutaraldehyde combined with stabilized hypochlorite and bromide, ppm active ingredient, day 5, MIC 2).
Consider “Alkyl*dimethyl benzyl ammonium chloride [ADBAC]”, for which the “A alone (MBC)” value in test [1] (Day 3, MBC 1) amounted to 50.00 ppm active ingredient; in test [1] (Day 3, MBC 2), 50.00 ppm active ingredient. Besides, the “A alone (MIC)” value came out at 12.50 ppm active ingredient in test [2] (Day 1, MIC 1) and 50.00 ppm active ingredient in test [2] (Day 3, MIC 2).
For the compound `N#CC(Br)(Br)C(N)=O` [DBNPA, 2,2-Dibromo-nitrilo-propionamide], the A alone is 12.50 ppm in test [1] (DBNPA alone, ppm active ingredient, day 1, MBC 1); 6.25 ppm in test [2] (DBNPA alone, ppm active ingredient, day 1, MIC 1); 6.25 ppm in test [2] (DBNPA alone, ppm active ingredient, day 1, MIC 2); 12.50 ppm and 6.25 ppm in test [2] (DBNPA alone, ppm active ingredient, day 5, MIC 1); 12.50 ppm in test [2] (DBNPA alone, ppm active ingredient, day 5, MIC 2). The a/A in test [1] (DBNPA comb./alone, day 1, MBC 1) was 0.50; in test [2] (DBNPA comb./alone, day 5, MIC 1) it was 0.32 and 0.50; in test [2] (DBNPA comb./alone, day 5, MIC 2), 0.32. Moreover, the a comb. in test [1] (DBNPA combined with stabilized hypochlorite and bromide, ppm active ingredient, day 1, MBC 1) is 6.25 ppm; in test [2] (DBNPA combined with stabilized hypochlorite and bromide, ppm active ingredient, day 1, MIC 1), 1.56 ppm and 0.78 ppm; in test [2] (DBNPA combined with stabilized hypochlorite and bromide, ppm active ingredient, day 5, MIC 1) it was 4.00 ppm and 3.13 ppm; in test [2] (DBNPA combined with stabilized hypochlorite and bromide, ppm active ingredient, day 5, MIC 2), 4.00 ppm.
For `O=c1[nH]sc2ccccc12` [BIT, 1,2-Benzisothiazolin-3-one], the A alone in test [1] (BIT alone, ppm active ingredient, day 1, MBC 2) is 100.00 ppm; in test [2] it was 25.00 ppm; in test [2] (BIT alone, ppm active ingredient, day 1, MIC 2), 50.00 ppm; in test [2] (BIT alone, ppm active ingredient, day 3, MIC 2), 100.00 ppm. Also, the a/A is 0.50 in test [1] (BIT comb./alone, day 1, MBC 2); 0.01 in test [2] (BIT comb./alone, day 1, MIC 1); 0.50 and 0.25 in test [2] (BIT comb./alone, day 1, MIC 2); 0.50 in test [2] (BIT comb./alone, day 3, MIC 2). In addition, the a comb. is 50.00 ppm in test [1] (BIT combined with stabilized hypochlorite and bromide, ppm active ingredient, day 1, MBC 2); 25.00 ppm and 12.50 ppm in test [2] (BIT combined with stabilized hypochlorite and bromide, ppm active ingredient, day 1, MIC 2); 50.00 ppm in test [2] (BIT combined with stabilized hypochlorite and bromide, ppm active ingredient, day 3, MIC 2).
As for `CCCCCCCCn1sc(Cl)c(Cl)c1=O` [DCOIT, 4,5-Dichloro-2-n-octyl-4-isothiazolin-3-one], the “A alone (MBC)” value was determined as 10.00 ppm active ingredient in test [1] (Day 1, MBC 1) and 10.00 ppm active ingredient in test [1] (Day 1, MBC 2). Also, the “A alone (MIC)” value in test [2] (Day 1, MIC 1) is 2.50 ppm active ingredient; in test [2] (Day 1, MIC 2) it was 2.50 ppm active ingredient; in test [2] (Day 3, MIC 1) it was 5.00 ppm active ingredient and 10.00 ppm active ingredient; in test [2] (Day 3, MIC 2), 10.00 ppm active ingredient and 5.00 ppm active ingredient; in test [2] (Day 5, MIC 1), 5.00 ppm active ingredient; in test [2] (Day 5, MIC 2), 10.00 ppm active ingredient.

(Values after patent US20060003023A1, “Microbicidal composition” (priority 2004, published 2006).)
